Assay results as given in ChEMBL document CHEMBL2073969, “Increased renal expression of bilirubin glucuronide transporters in a rat model of obstructive jaundice” (Am J Physiol Gastrointest Liver Physiol, 2002).

Target: ATP-binding cassette sub-family C member 2 (Homo sapiens, UniProt Q92887)
Assay: TP_TRANSPORTER: RT-PCR in renal proximal tubular epithelial cells
Assay type: functional, tissue-based, Kidney
Conditions: epithelial cell

Chain of ATP-binding cassette sub-family C member 2 (Q92887 whole entry): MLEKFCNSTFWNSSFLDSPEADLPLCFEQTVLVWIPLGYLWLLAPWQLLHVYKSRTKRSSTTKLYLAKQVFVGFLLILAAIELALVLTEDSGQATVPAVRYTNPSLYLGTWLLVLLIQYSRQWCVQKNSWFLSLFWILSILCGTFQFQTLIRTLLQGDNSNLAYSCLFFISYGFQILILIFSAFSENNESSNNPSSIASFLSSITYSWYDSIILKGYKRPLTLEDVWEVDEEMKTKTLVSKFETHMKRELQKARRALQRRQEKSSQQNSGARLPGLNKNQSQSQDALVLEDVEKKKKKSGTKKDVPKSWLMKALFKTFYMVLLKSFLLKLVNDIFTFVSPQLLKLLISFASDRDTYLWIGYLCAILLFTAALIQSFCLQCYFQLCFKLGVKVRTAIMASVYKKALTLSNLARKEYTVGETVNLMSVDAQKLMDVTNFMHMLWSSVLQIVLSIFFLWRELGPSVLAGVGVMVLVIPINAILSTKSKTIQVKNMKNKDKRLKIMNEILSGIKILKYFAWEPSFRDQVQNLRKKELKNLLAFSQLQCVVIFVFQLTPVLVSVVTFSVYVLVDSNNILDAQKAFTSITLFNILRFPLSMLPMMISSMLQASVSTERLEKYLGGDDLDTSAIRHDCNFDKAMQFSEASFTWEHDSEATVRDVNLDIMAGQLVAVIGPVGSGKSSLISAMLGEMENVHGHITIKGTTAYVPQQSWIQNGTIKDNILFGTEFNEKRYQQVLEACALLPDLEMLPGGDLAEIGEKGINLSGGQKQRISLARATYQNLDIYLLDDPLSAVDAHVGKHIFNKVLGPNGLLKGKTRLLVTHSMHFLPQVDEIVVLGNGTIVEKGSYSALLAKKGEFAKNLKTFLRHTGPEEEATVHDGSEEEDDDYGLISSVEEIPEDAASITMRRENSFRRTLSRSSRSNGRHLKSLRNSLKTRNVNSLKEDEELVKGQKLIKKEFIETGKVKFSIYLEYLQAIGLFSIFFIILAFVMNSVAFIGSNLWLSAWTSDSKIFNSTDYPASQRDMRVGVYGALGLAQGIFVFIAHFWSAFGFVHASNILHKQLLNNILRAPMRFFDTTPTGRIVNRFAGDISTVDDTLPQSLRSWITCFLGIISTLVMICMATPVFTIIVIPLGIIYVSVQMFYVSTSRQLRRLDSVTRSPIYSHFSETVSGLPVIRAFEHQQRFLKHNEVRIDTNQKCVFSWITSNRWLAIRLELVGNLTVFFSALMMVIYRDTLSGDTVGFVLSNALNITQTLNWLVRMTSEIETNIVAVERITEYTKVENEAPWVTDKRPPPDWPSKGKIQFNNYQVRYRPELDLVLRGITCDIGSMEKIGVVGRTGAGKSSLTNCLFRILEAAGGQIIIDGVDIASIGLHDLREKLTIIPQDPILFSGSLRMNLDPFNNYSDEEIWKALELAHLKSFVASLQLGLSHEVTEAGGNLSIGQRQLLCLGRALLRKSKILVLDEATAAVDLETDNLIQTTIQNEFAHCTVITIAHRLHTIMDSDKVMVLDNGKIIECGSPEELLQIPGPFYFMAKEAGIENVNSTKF

Activity	Compound
inducer [+]	C=CC1=C(C)/C(=C/c2[nH]c(Cc3[nH]c(/C=C4\NC(=O)C(C)=C4C=C)c(C)c3CCC(=O)NCCS(=O)(=O)O)c(CCC(=O)NCCS(=O)(=O)O)c2C)NC1=O [BILIRUBIN DITAURATE]
inducer [+]	C[C@H](CCC(=O)NCCS(=O)(=O)O)[C@H]1CC[C@H]2[C@@H]3CC[C@@H]4C[C@H](O)CC[C@]4(C)[C@H]3CC[C@]12C [TAUROLITHOCHOLIC ACID]
